In the supplement of paper PMC11451515:

Key:
Details in all cases: 48 h
[1] = system: NOMO1; assay: cell viability relative to DMSO control; higher = less cytotoxic
Summary of the method: (§1)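 Library compounds in DMSO were pin-dosed in an 11-point threefold series (47 μM to 0.79 nM) onto leukemia cells in 1536-well plates (5 μl). Plates held 500 cells/well of NOMO1 or SEM or 1000 cells/well of P12-Ichikawa, each adapted for at least four passages in each medium. Luminescence was read with CellTiter-Glo One after 48 h at 37°C. Viability means the per-plate percentage relative to DMSO wells, using cell-free wells as background.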

[2] = system: SEM cells; assay: as above
Summary of the method: as §1

[3] = system: NOMO1; assay: AUC of viability dose-response curve (% viability x log10 dose units); higher = less sensitive
Summary of the method: (§2)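 Library compounds in DMSO were applied for 48 h at 37°C at 11 threefold doses (47 μM to 0.79 nM) to medium-adapted leukemia cells in 1536-well plates holding 500 or 1000 cells/well. Luminescence from CellTiter-Glo One was normalised plate by plate against DMSO and cell-free wells. Area under the curve came from trapezoidal integration of a log-logistic fit, after scaling curves that rose above full viability and discarding those that failed quality control. The fit had four parameters and used log10 doses.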

[4] = system: P12-Ichikawa; assay: as above
Summary of the method: as §2

[5] = system: SEM cells; assay: as above
Summary of the method: as §2

[6] = system: P12-Ichikawa; assay: cell viability relative to DMSO control; higher = less cytotoxic
Summary of the method: as §1

COc1ccnc(C[S+]([O-])c2nc3cc(OC(F)F)ccc3[nH]2)c1OC (centres undefined)
cell viability [%]
Details | [1] | [2]
HPLM + 10% dialyzed FBS, 0.000781 µM | 111 | 110
HPLM + 10% dialyzed FBS, 0.00234 µM | 124 | 111
HPLM + 10% dialyzed FBS, 0.00702 µM | 119 | 124
HPLM + 10% dialyzed FBS, 0.0211 µM | 131 | 123
HPLM + 10% dialyzed FBS, 0.0632 µM | 124 | 122
HPLM + 10% dialyzed FBS, 0.19 µM | 134 | 123
HPLM + 10% dialyzed FBS, 0.569 µM | 126 | 133
HPLM + 10% dialyzed FBS, 1.71 µM | 115 | 119
HPLM + 10% dialyzed FBS, 5.12 µM | 134 | 134
HPLM + 10% dialyzed FBS, 15.4 µM | 128 | 128
HPLM + 10% dialyzed FBS, 46.1 µM | 126 | 143
RPMI 5 mM glucose + 10% dialyzed FBS, 0.000781 µM | – | 111
RPMI 5 mM glucose + 10% dialyzed FBS, 0.00234 µM | – | 95.9
RPMI 5 mM glucose + 10% dialyzed FBS, 0.00702 µM | – | 126
RPMI 5 mM glucose + 10% dialyzed FBS, 0.0211 µM | – | 131
RPMI 5 mM glucose + 10% dialyzed FBS, 0.0632 µM | – | 125
RPMI 5 mM glucose + 10% dialyzed FBS, 0.19 µM | – | 118
RPMI 5 mM glucose + 10% dialyzed FBS, 0.569 µM | – | 127
RPMI 5 mM glucose + 10% dialyzed FBS, 1.71 µM | – | 144
RPMI 5 mM glucose + 10% dialyzed FBS, 5.12 µM | – | 126
RPMI 5 mM glucose + 10% dialyzed FBS, 15.4 µM | – | 130
RPMI 5 mM glucose + 10% dialyzed FBS, 46.1 µM | – | 137

AUC of viability dose-response curve
Details | [3] | [4] | [5]
HPLM + 10% dialyzed FBS | 459 | 474 | 435
RPMI 5 mM glucose + 10% FBS | 464 | 456 | 431
RPMI 5 mM glucose + 10% dialyzed FBS | 474 | 461 | 461

O=C(O)C1CCCN(CCC=C(c2ccccc2)c2ccccc2)C1 (centres undefined)
AUC of viability dose-response curve
Details | [3] | [4] | [5]
HPLM + 10% dialyzed FBS | 425 | 469 | 463
RPMI 5 mM glucose + 10% FBS | 453 | 459 | 462
RPMI 5 mM glucose + 10% dialyzed FBS | 465 | 474 | 464

CC1(C)CC(O)CC(C)(C)N1[O]
cell viability [%]
Details | [1] | [2] | [6]
HPLM + 10% dialyzed FBS, 0.000781 µM | 100 | 87.2 | 111
HPLM + 10% dialyzed FBS, 0.00234 µM | 125 | 80.3 | 112
HPLM + 10% dialyzed FBS, 0.00702 µM | 109 | 89.8 | 119
HPLM + 10% dialyzed FBS, 0.0211 µM | 115 | 86.9 | 118
HPLM + 10% dialyzed FBS, 0.0632 µM | 115 | 81.6 | 128
HPLM + 10% dialyzed FBS, 0.19 µM | 114 | 89.1 | 121
HPLM + 10% dialyzed FBS, 0.569 µM | 125 | 44.7 | 132
HPLM + 10% dialyzed FBS, 1.71 µM | 121 | 94.3 | 124
HPLM + 10% dialyzed FBS, 5.12 µM | 124 | 89.5 | 120
HPLM + 10% dialyzed FBS, 15.4 µM | 129 | 92.1 | 117
HPLM + 10% dialyzed FBS, 46.1 µM | 120 | 84.2 | 119
RPMI 5 mM glucose + 10% FBS, 0.000781 µM | 105 | 102 | 110
RPMI 5 mM glucose + 10% FBS, 0.00234 µM | 122 | 114 | 111
RPMI 5 mM glucose + 10% FBS, 0.00702 µM | 128 | 96.3 | 109
RPMI 5 mM glucose + 10% FBS, 0.0211 µM | 116 | 105 | 110
RPMI 5 mM glucose + 10% FBS, 0.0632 µM | 128 | 98.6 | 126
RPMI 5 mM glucose + 10% FBS, 0.19 µM | 128 | 96.6 | 134
RPMI 5 mM glucose + 10% FBS, 0.569 µM | 123 | 27.7 | 125
RPMI 5 mM glucose + 10% FBS, 1.71 µM | 118 | 101 | 114
RPMI 5 mM glucose + 10% FBS, 5.12 µM | 135 | 113 | 119
RPMI 5 mM glucose + 10% FBS, 15.4 µM | 128 | 103 | 119
RPMI 5 mM glucose + 10% FBS, 46.1 µM | 127 | 99.5 | 116
RPMI 5 mM glucose + 10% dialyzed FBS, 0.000781 µM | 100 | 98.6 | 107
RPMI 5 mM glucose + 10% dialyzed FBS, 0.00234 µM | 123 | 94.6 | 122
RPMI 5 mM glucose + 10% dialyzed FBS, 0.00702 µM | 121 | 97.8 | 113
RPMI 5 mM glucose + 10% dialyzed FBS, 0.0211 µM | 123 | 97.5 | 120
RPMI 5 mM glucose + 10% dialyzed FBS, 0.0632 µM | 119 | 94.3 | 125
RPMI 5 mM glucose + 10% dialyzed FBS, 0.19 µM | 119 | 95.4 | 129
RPMI 5 mM glucose + 10% dialyzed FBS, 0.569 µM | 123 | 32.7 | 125
RPMI 5 mM glucose + 10% dialyzed FBS, 1.71 µM | 125 | 106 | 134
RPMI 5 mM glucose + 10% dialyzed FBS, 5.12 µM | 120 | 108 | 127
RPMI 5 mM glucose + 10% dialyzed FBS, 15.4 µM | 123 | 102 | 127
RPMI 5 mM glucose + 10% dialyzed FBS, 46.1 µM | 129 | 85.4 | 126

AUC of viability dose-response curve
Details | HPLM + 10% dialyzed FBS | RPMI 5 mM glucose + 10% FBS | RPMI 5 mM glucose + 10% dialyzed FBS
[3] | 452 | 472 | 472
[4] | 464 | 459 | 459

CC1=C(CC/C(C)=C/CCC2=CCC(C3=CC(=O)OC3O)OC2O)C(C)(C)CCC1 (centres undefined)
cell viability [%], [2]
Details | HPLM + 10% dialyzed FBS | RPMI 5 mM glucose + 10% dialyzed FBS
0.000781 µM | 115 | 121
0.00234 µM | 129 | 124
0.00702 µM | 114 | 119
0.0211 µM | 129 | 112
0.0632 µM | 46.6 | 27.5
0.19 µM | 125 | 132
0.569 µM | 138 | 148
1.71 µM | 127 | 115
5.12 µM | 71.4 | 54
15.4 µM | 107 | 140
46.1 µM | 106 | 129

AUC of viability dose-response curve
Details | HPLM + 10% dialyzed FBS | RPMI 5 mM glucose + 10% FBS | RPMI 5 mM glucose + 10% dialyzed FBS
[3] | 434 | 469 | 466
[4] | 457 | 434 | 443
